Laboratory results published in paper PMC4666608, “Metabolic Profiling of Chicken Embryos Exposed to Perfluorooctanoic Acid (PFOA) and Agonists to Peroxisome Proliferator-Activated Receptors” (PLoS ONE, 2015).
Marks after values point to notes of the source that are not given here.

Tested on: chicken embryos
Experiment: Metabolic profiling of blood plasma (GC-MS, LC-MS, OPLS-DA)
Type: in vivo, Gallus gallus domesticus
Protocol: Controls were injected with 20 μL vehicle only (DMSO).
Plasma was collected and stored at -70°C.
Metabolites in allantoic fluid and blood plasma were analyzed using gas chromatography-mass spectrometry (GC-MS) and liquid chromatography-mass spectrometry (LC-MS) as described in S1 Methods. Prior to GC-MS and LC-MS analysis, allantoic fluid (100 μL) and blood plasma (50 μL) were extracted. To each sample, 900 μL (allantoic fluid) or 450 μL (blood plasma) of extraction buffer (90/10 v/v methanol:water) including all internal standards were added. Standards for GC-MS were proline, succinic acid, glutamic acid, salicylic acid, alpha-ketoglutarate, putrescine, myristic acid, hexadecanoic acid, cholesterol, and sucrose. Standards for LC-MS were Val-Tyr-Val, Leu-enkephalin, sulfadimethoxine and reserpine. Samples were homogenized by shaking in a bead mill at a frequency of 30 Hz for 3 minutes and proteins were precipitated at +4°C on ice. The samples were centrifuged at +4°C, 14000 rpm, for 10 min. Then, 200 μL supernatant was transferred to a GC microvial and 200 μL was transferred to an LC microvial, and solvents were evaporated. Samples from the four replicate experiments were analyzed using in chronological order and within each replicate experiment the run order of the individual samples was randomized.
Multivariate statistical analyses of metabolite profiles were performed using the software package SIMCA-P version 13.0 (Umetrics, Umeå, Sweden). Data was centered and scaled to variance 1 (UV scaling) prior to modelling. To reduce unintended systematic variation caused by sample processing and instrument drift, GC-MS and LC-MS metabolite amounts (expressed as the area under the chromatographic peak) were normalized by Orthogonal Partial Least Squares analysis (O2PLS) prior to multivariate data analysis. O2PLS finds common (predictive) and unique (orthogonal) variation in two data matrices. If applied to find the common variation between the data matrix containing the measured metabolite concentrations and a matrix containing only the internal standards, the only common (predictive) variation expected is due to the unintended systematic variation. By deleting the contribution of the predictive latent variables, that variation can be removed from the data. Models obtained after this normalization contain in general less latent variables, and this simplification helps when deciding on the number of latent variables to be used. Following normalization, GC-MS and LC-MS data were analyzed together. Initially, a global Principal Component Analysis (PCA) was performed to get an overview of groups and trends and to identify outliers. Projections to latent structures by means of Orthogonal Partial Least Squares Discriminant Analysis (OPLS-DA) was used to model the relationship between the X-matrix (metabolite concentrations) and the Y matrix (class, i.e. exposure group or sex), and to find x-variables that were related to class belonging. OPLS-DA is a supervised prediction and regression method that rotates the projection plane to find the maximum covariance between the data and the class assignment. All groups were first analyzed together in a 5-class OPLS-DA and then each exposure group was analyzed against the control group in a 2-class OPLS-DA. Sex differences were analyzed both using the whole data set and in each group separately using 2-class OPLS-DA, with females and males as the two classes. Only variables with 80% or more nonzero values were included in the statistical models. […] The validity of each model was also checked using CV-ANOVA (ANOVA of the cross-validated residuals). A significance level of p < 0.05 was used. For each model, R ^2 X, R ^2 Y and Q ^2 values were calculated, where R ^2 X is a measure of the fraction of x variation modeled in the extracted latent variables, R ^2 Y is a measure of the fraction of y variation modeled and Q ^2 is an estimate of the predictive ability of the model and is calculated by cross-validation. […]

Compound: CN(CCOc1ccc(CC2SC(=O)NC2=O)cc1)c1ccccn1 (centres unmarked) [Rosiglitazone, rosiglitazone, reference compound]
- Mean concentration relative to control, feature Win006_C03 (GC): 1.2*
- Mean concentration relative to control, feature Win011_C02 (Isoleucine) (GC): 1.1
- Mean concentration relative to control, feature Win027_C13 (GC): 0.9
- Mean concentration relative to control, feature Win031_C03 (Citric acid) (GC): 1
- Mean concentration relative to control, feature Win034_C08 (Tyrosine) (GC): 1
- Mean concentration relative to control, feature Win034_C09 (Tyrosine) (GC): 1.1
- Mean concentration relative to control, feature Win039_C07 (GC): 1.2
- Mean concentration relative to control, feature Win043_C02 (Cystathionine) (GC): 1
- Mean concentration relative to control, feature Win061_C01 (GC): 0.9
- Mean concentration relative to control, feature Win066_C03 (GC): 1
- Mean concentration relative to control, feature Win088_C02 (GC): 1
- Mean concentration relative to control, feature 118.0284@2.480333 (C4H6O4) (LC): 0.8**
- Mean concentration relative to control, feature 122.0486@0.675613 (LC): 1
- Mean concentration relative to control, feature 126.0428@1.2278157 (Thymine) (LC): 1.0
- Mean concentration relative to control, feature 146.0362@0.7772238 (LC): 1.1
- Mean concentration relative to control, feature 159.0686@1.1608156 (LC): 1.1
- Mean concentration relative to control, feature 164.0449@0.7694838 (LC): 1.1
- Mean concentration relative to control, feature 202.1024@5.0303197 (C8H14N2O4) (LC): 1.1
- Mean concentration relative to control, feature 203.1162@0.5130696 (LC): 1
- Mean concentration relative to control, feature 213.2458@7.4887733 (LC): 1
- Mean concentration relative to control, feature 215.047@1.6260729 (C5H14NO6P) (LC): 0.9*
- Mean concentration relative to control, feature 226.0721@1.9460537 (LC): 1
- Mean concentration relative to control, feature 231.0174@1.6241412 (LC): 0.8*
- Mean concentration relative to control, feature 233.1265@2.535991 (LC): 1
- Mean concentration relative to control, feature 250.1317@2.1334834 (LC): 1.2
- Mean concentration relative to control, feature 260.0508@0.69984084 (LC): 0.8*
- Mean concentration relative to control, feature 276.0173@1.6283482 (LC): 0.9
- Mean concentration relative to control, feature 278.0939@1.3354088 (LC): 0.9
- Mean concentration relative to control, feature 293.0903@1.5739433 (LC): 1
- Mean concentration relative to control, feature 307.2147@7.5065937 (C18H29NO3) (LC): 0.9
- Mean concentration relative to control, feature 310.178@7.5343466 (LC): 1
- Mean concentration relative to control, feature 339.3861@9.528681 (LC): 1.2
- Mean concentration relative to control, feature 342.2883@7.526812 (LC): 1
- Mean concentration relative to control, feature 348.0675@1.5761927 (LC): 1
- Mean concentration relative to control, feature 355.9454@0.68034226 (LC): 1
- Mean concentration relative to control, feature 362.1467@0.8461036 (LC): 1.1
- Mean concentration relative to control, feature 366.1431@1.4228548 (LC): 0.9*
- Mean concentration relative to control, feature 373.296@9.044806 (LC): 1
- Mean concentration relative to control, feature 375.3108@8.995564 (LC): 1
- Mean concentration relative to control, feature 389.2686@9.046645 (LC): 1
- Mean concentration relative to control, feature 407.0999@1.585909 (LC): 0.9*
- Mean concentration relative to control, feature 412.135@2.4779084 (C17H24N4O6S) (LC): 0.8**
- Mean concentration relative to control, feature 444.3607@10.33052 (LC): 0.9
- Mean concentration relative to control, feature 471.9819@0.685074 (LC): 1
- Mean concentration relative to control, feature 489.1508@8.562614 (LC): 0.7*
- Mean concentration relative to control, feature 509.1184@2.4798179 (LC): 0.8**
- Mean concentration relative to control, feature 525.2855@8.361063 (LC): 0.9
- Mean concentration relative to control, feature 545.2492@8.463657 (LC): 0.9
- Mean concentration relative to control, feature 558.4095@9.459733 (LC): 1.2*
- Mean concentration relative to control, feature 565.1902@0.7699907 (LC): 1.1
- Mean concentration relative to control, feature 577.2747@9.25652 (LC): 1.1
- Mean concentration relative to control, feature 581.1643@0.77029324 (LC): 1.1
- Mean concentration relative to control, feature 634.2403@1.9467853 (LC): 1
- Mean concentration relative to control, feature 644.1614@0.7647065 (LC): 1.1
- Mean concentration relative to control, feature 659.5483@11.4915495 (LC): 1.0
- Mean concentration relative to control, feature 698.2598@1.3599721 (LC): 1.2*
- Mean concentration relative to control, feature 700.5514@10.765638 (LC): 1.1
- Mean concentration relative to control, feature 755.5465@10.73882 (LC): 1.4*
- Mean concentration relative to control, feature 827.5078@8.831237 (LC): 1
- Mean concentration relative to control, feature 875.4661@10.5661745 (LC): 1.0
- Mean concentration relative to control, feature 1262.4865@1.947075 (LC): 1
- Mean concentration relative to control, feature 1316.4163@1.9465046 (LC): 1.1*
- Mean concentration relative to control, feature 1591.051@5.0189176 (LC): 0.8**
- Mean concentration relative to control, feature 1591.388@5.0202384 (LC): 0.9*
- Mean concentration relative to control, feature 1591.7203@5.018071 (LC): 0.9*
